The values below come from patent US11440880B2, “Thalidomide analogs and methods of use” (The USA, as represented by the Secretary, Department of …, priority 2015, dated 2022).

In data set [1] the test system is fli1:EGFP zebrafish embryos (intersegmental vessel growth). Kind of data set: fli1:EGFP zebrafish embryo angiogenesis assay. Type of data set: in vivo. On the set-up: fli1:EGFP angiogenesis n (survived/tested): concentration or dose not given beside the values. The note with it: for minimal effective concentration: Danio rerio, lowest concentration producing an effect, compounds not producing an effect shown at the highest evaluated concentration; for fli1:EGFP angiogenesis n (survived/tested): embryos alive after 24 hours of exposure. An excerpt: (§1) Zebrafish embryology: The use of zebrafish embryo (Danio rerio) bioassays as a preclinical model in the classification of novel compounds has increased in recent years due to several factors including; low cost, ease of maintenance, speed of embryonic development, transparency of the embryos and genetic conservation between zebrafish and humans (Howe et al., Nature 2013; 496:498; Therapontos et al., PNAS 2009, 106:8573; Mahony et al., PNAS 2013, 110:12703; Beedie et al., Oncotarget 2016, 7(22):33237; Beedie et al., Mol. Cancer Ther. 2015, 14(10):2228). Two established zebrafish reporter lines were used—the fli1:EGFP line, where the fli1 promoter drives expression of enhanced green fluorescent protein within the developing vasculature (Lawson et al., 2002), and the Tg(mpo::EGFP) line (also known as mpo:GFP), which expresses green fluorescent protein via the neutrophil specific myeloperoxidase promoter (Renshaw et al., Blood 2006, 108:3976). The use of these zebrafish transgenic reporter lines allows for the identification of potential anti-angiogenic and anti-inflammatory compounds respectively, and both have been used previously to successfully classify the action of thalidomide analogs (Therapontos et al., 2009; Mahony et al., 2013; Beedie et al., Oncotarget 2016, 7(22):33237; Beedie et al., Mol. Cancer Ther. 2015, 14(10):2228). Zebrafish embryos were treated with analogs as previously described (Mahony et al., 2013). Briefly, fli1:EGFP embryos were collected and embryos were allowed to develop for 24 hours. Embryos were dechorionated manually and exposed to test compounds or vehicle control for a further 24 hours, imaged and analyzed for intersegmental vessel (ISV) growth. At 24 hours post fertilisation (hpf) the ISVs were ideal to study to visualize and analyze the actions of compounds on angiogenesis. At this time point ISVs were rapidly forming beneath the developing head, over the body and had yet to form in the tail (Lawson and Weinstein, Developmental Biology 2002, 248:307; Therapontos and Vargesson, Developmental Dynamics 2010, 239:2761). Additionally, these sprouts would go on to form the bilateral dorsal longitudinal anastomotic vessels. By treating before this fusion and formation occurs, the effect of each compound on the individual vessels as well as overall patterning structural integrity (Isogai et al., Development 2003, 130:5281) could be determined. Tg(mpo::EGFP) were tail fin clipped as previously detailed (Renshaw et al., 2006; Mahony et al., 2013; Beedie et al., Oncotarget 2016, 7(22):33237; Beedie et al., Mol. Cancer Ther. 2015, 14(10):2228) and incubated with test compounds or vehicle control at 72 hours post fertilization. Fish were imaged at 24 hours and the number of migratory neutrophils present at the wound site were counted. Compounds inducing an at least 50% reduction of neutrophils to the wound site were considered to have anti-inflammatory properties in this system. All larvae were assessed for viability and morphological integrity.
To determine if the thalidomide analogs had any effect on angiogenesis, fli1:EGFP embryos (Lawson and Weinstein, Developmental Biology 2002, 248:307-318) were exposed to either vehicle or a compound of interest, over a range of concentrations and over a range of time points starting at 24 hpf. Images were obtained at three time points over 24 hours after exposure to the compounds. The best concentration and time point were selected. CPS49, a compound that is chemically and structurally similar to thalidomide breakdown products, and is tetrafluorinated (which adds stability and bioactivity to the compound) and that causes severe limb defects in chicken embryos, was used as a positive control. The embryos were imaged at 48 hpf (FIGS. 3A3L) and analyzed for both vessel formation and the extent of growth of the vasculature. […]

For data set [2], the system named is mpo:GFP zebrafish embryos (neutrophil migration to the wound site). Kind of data set: mpo:GFP zebrafish fin-clip neutrophil migration (inflammation) assay. Type of data set: in vivo. On the set-up: mpo:GFP inflammation n (survived/tested): concentration or dose not given beside the values. The note with it: for minimal effective concentration: Danio rerio, Neutrophil, lowest concentration producing an effect, compounds not producing an effect shown at the highest evaluated concentration; for mpo:GFP inflammation n (survived/tested): embryos survived/tested at the concentration given.
Description: as §1
To assess the immunomodulatory effects of the thalidomide analogs, the mpo:gfp transgenic zebrafish line (Renshaw et al., Blood 2006, 108:3976-3978) was utilized because it is an accepted model of inflammation, and can be used to test the effect of anti-inflammatory agents. These embryos express GFP-tagged myeloperoxidase, where green fluorescence marks the neutrophil cells involved in the inflammatory response process, for example following injury, from 72 hours post fertilization (Renshaw et al., 2006; Mahony et al., 2013; Beedie et al., Oncotarget 2016, 7(22):33237). At 72 hpf the dorsal third of the tail fin was removed and the embryos were immersed in the desired compound or vehicle (FIGS. 5A-5C). The embryos were examined for the effect on the inflammatory response quantified as an induction and migration of neutrophils to the wound site 24 hours later.

The subject of the next data set is TNF-α protein. Kind of data set: TNF-α protein level (ELISA) in LPS-challenged RAW 264.7 cells. To be noted: LPS 30 or 60 ng/mL, 24 h. It counts as cell-based, mouse. On the set-up: key: NS=not significant; a “+” sign=anti-inflammatory or increased cell numbers; a “−” sign=cell toxicity or pro-inflammatory. How it is done: (§2) Nitrite levels in the culture media were measured by use of the Griess Reagent System (Promega, Madison, Wis.), following the manufacturer's protocol. The O.D. of unknown samples was read at 520 nm λ, compared to a sodium nitrite standard curve (1.5 μM to 100 μM) and nitrite measured media concentrations expressed as μM units. As the lowest nitrite concentration on the Griess Reagent System standard curve was 1.5 μM, this was chosen as the effective cutoff for defining measurable nitrite concentrations. TNF-α protein levels were measured by use of an ELISA specific for mouse TNF-α protein (BioLegend, San Diego, Calif.) and are expressed as a % change from their appropriate control or as pg/ml.
(§3) RAW 264.7 cells obtained from ATCC (Manassas, Va., USA) were grown in DMEM media supplemented with 10% FCS, penicillin 100 μg/ml and streptomycin 100 μg/ml, and maintained at 37° C. and 5% CO2. Cells were seeded in 24 well plates and, 24 hours later, were utilized in studies. One hour prior to the initiation of any study, the seeding media was replaced with fresh media (1 mL), and the cells were allowed to equilibrate at 37° C. and 5% CO2.
(§4) RAW 264.7 cells were challenged with LPS (Sigma, St Louis, Mo.: serotype 055:B5) from at a final concentration of 30 or 60 ng/mL. This concentration of LPS in RAW 264.7 cells induces a sub-maximal rise in both TNF-alpha and nitrite levels without a loss in cellular viability. This sub-maximal rise is useful for assessing whether the addition of an experimental drug can either lower or further raise levels of TNF-α and nitrite. Twenty four hours following the addition of LPS, conditioned media was harvested and analyzed for quantification of secreted TNF-α protein and nitrite levels. Fresh media was replaced into the wells and cell viability was then assessed.
(§5) Thalidomide and analogs were prepared in tissue culture grade DMSO (Sigma). RAW 264.7 cells were pretreated with thalidomide, analogues or vehicle one hour prior to a challenge with LPS. The effects of various concentrations of thalidomide analogues were assessed. All compounds were synthesized to a chemical purity of >99.5%, as assessed by chemical characterization by a combination of 1H NMR, 13C NMR and GC/MS analyses (Bruker AC-300 spectrometer, together with elemental analyses (Atlantic Microlab, Inc., Norcross, Ga.).
(In general: In an ELISA, binding on a coated surface is turned into a signal by an enzyme label.)

The subject of data set [3] is nitrite levels in the culture media. Briefly: Nitrite level (Griess Reagent System) in LPS-challenged RAW 264.7 cells. It counts as cell-based, mouse. More on the design: key: NS=not significant; a “+” sign=anti-inflammatory or increased cell numbers; a “−” sign=cell toxicity or pro-inflammatory. To be noted: LPS 30 or 60 ng/mL, 24 h. How it is done:
as §2, §3, §4, §5
(The Griess reaction detects nitrite, a stable product of nitric oxide.)

A further data set concerns RAW 264.7 cells. Briefly: Cell viability (CellTiter 96 AQueous One) of LPS-challenged RAW 264.7 cells. Type of data set: cell-based, mouse. More on the design: key: NS=not significant; a “+” sign=anti-inflammatory or increased cell numbers; a “−” sign=cell toxicity or pro-inflammatory. How it is done:
The CellTiter 96® AQueous One Solution Cell Proliferation Assay (Promega, Madison, Wis.) is routinely used as an assay of cell proliferation, and was used according to the manufacturer's recommendations. Changes in cellular health status are determined by use of indirect measures related to the formation of a colored tetrazolium dye product that can be measured spectrophotometrically at 490 nm λ. […] Optical densities (expressed as O.D.s) were measured after various incubations.
as §3, §4, §5

For orientation: minimal effective concentration means the smallest amount tested that counted as effective. For `O=C1NC(=S)CCC1N1C(=O)c2ccccc2C1=S` (centres unmarked) [Compound 2, 2,3-dihydro-2-(2-oxo-6-thioxo-3-piperidinyl)-3-thioxo-1H-isoindol-1-one], in data set [1], the minimal effective concentration was found to be 10 µg/mL and the “fli1:EGFP angiogenesis n (survived/tested)” value is reported as 21/24. Also, in data set [2], the minimal effective concentration was 10 µg/mL and the “mpo:GFP inflammation n (survived/tested)” value is 26/30. In addition, the “anti-inflammatory activity (inhibition of neutrophil migration)” value in data set [2] (in words) was “significant anti-inflammatory action”.
Regarding `CC(=O)Oc1ccc2c(c1)C(=O)N(C1CCC(=S)NC1=O)C2=O` (centres unmarked) [Compound 19], in data set [1], the minimal effective concentration was found to be 1 µg/mL and the “fli1:EGFP angiogenesis n (survived/tested)” value is given as 13/51. Besides, in data set [2], the minimal effective concentration is 1 µg/mL and the “mpo:GFP inflammation n (survived/tested)” value is 5/12.
For `Nc1cccc2c1CN(C1CCC(=S)NC1=O)C2=O` (centres unmarked) [Compound 30], in data set [1], the minimal effective concentration stood at 10 µg/mL and the “fli1:EGFP angiogenesis n (survived/tested)” value is reported as 4/8. Further, in data set [2], the minimal effective concentration came out at 10 µg/mL and the “mpo:GFP inflammation n (survived/tested)” value is reported as 10/10.
Regarding `N=C1c2ccccc2C(=O)N1C1CCC(=O)NC1=O` (centres unmarked) [Compound 56], in data set [1], the minimal effective concentration was found to be 10 µg/mL and the “fli1:EGFP angiogenesis n (survived/tested)” value was 9/19. Also, in data set [2], the minimal effective concentration is 10 µg/mL and the “mpo:GFP inflammation n (survived/tested)” value is 7/8.
On to `Nc1ccc2c(=O)n(C3CCC(=O)NC3=O)c(=O)oc2c1` (centres unmarked) [Compound 24], for which, in data set [1], the minimal effective concentration was determined as 50 µg/mL and the “fli1:EGFP angiogenesis n (survived/tested)” value was 13/25. Further, in data set [2], the minimal effective concentration is 50 µg/mL and the “mpo:GFP inflammation n (survived/tested)” value is given as 6/6.
Regarding `N=C1N/C(=N\C2CCC(=O)NC2=O)c2ccccc21` (centres unmarked) [Compound 55], in data set [1], the minimal effective concentration is 100 µg/mL and the “fli1:EGFP angiogenesis n (survived/tested)” value is 6/10. Besides, in data set [2], the minimal effective concentration stood at 200 µg/mL and the “mpo:GFP inflammation n (survived/tested)” value is listed as 6/11.
Regarding `CC(N1Cc2c(cccc2[N+](=O)[O-])C1=S)C12CC3CC(CC(C3)C1)C2` (centres unmarked) [Compound 89], the TNF-α result in the data set on TNF-α protein (1 μM), in the data set with TNF-α protein (10 μM) and with TNF-α protein (30 μM) was “NS” each time. Moreover, the results for the Nitrite entry in data set [3] (1 μM), in data set [3] (10 μM) and in data set [3] (30 μM) were “NS”, “+” and “+”, respectively. For the same compound, the values for the Viability entry with RAW 264.7 cells (1 μM), in the data set with RAW 264.7 cells (10 μM) and in the data set with RAW 264.7 cells (30 μM) were “NS”, “NS” and “−”, respectively. In data set [1], this compound showed a minimal effective concentration of 10 µg/mL. Further, in data set [1], the “fli1:EGFP angiogenesis n (survived/tested)” value is 7/11.
Regarding `O=C1c2c(F)c(F)c(F)c(F)c2C(=O)N1c1ccc(F)cc1F` [CPS49, reference compound], in data set [1] (in words), the “anti-angiogenic effect (loss of ISVs or inhibition of ISV outgrowth)” value is “decrease in blood vessel length”.
Regarding `C[C@@H]1[C@@H](N2Cc3c(N)cccc3C2=O)C[C@H]2C[C@@H]1C2(C)C` [Compound 93], the TNF-α result in the data set with TNF-α protein (1 μM), in the data set on TNF-α protein (10 μM) and in the data set on TNF-α protein (30 μM) was “NS” each time. In addition, the Nitrite result in data set [3] (1 μM) is recorded as “NS”; in data set [3] (10 μM) it was “NS”; in data set [3] (30 μM) it was “+”. The Viability result with RAW 264.7 cells (1 μM), in the data set with RAW 264.7 cells (10 μM) and with RAW 264.7 cells (30 μM) was “NS” each time. This compound gave a minimal effective concentration in data set [1] of 10 µg/mL. In addition, in data set [1], the “fli1:EGFP angiogenesis n (survived/tested)” value is 8/10.
Regarding `C[C@H]1[C@H](N2Cc3c(N)cccc3C2=O)C[C@@H]2C[C@H]1C2(C)C` [Compound 91], the TNF-α entry in the data set with TNF-α protein (1 μM) is given as “NS”; in the data set on TNF-α protein (10 μM), “+”; in the data set with TNF-α protein (30 μM) it was “+”. Besides, the Nitrite result in data set [3] (1 μM), in data set [3] (10 μM) and in data set [3] (30 μM) was “+” throughout. For the same compound, the results for the Viability result in the data set on RAW 264.7 cells (1 μM), in the data set on RAW 264.7 cells (10 μM) and in the data set with RAW 264.7 cells (30 μM) were “NS”, “+” and “+”, respectively. Also, in data set [1], the minimal effective concentration stood at 10 µg/mL. Moreover, the “fli1:EGFP angiogenesis n (survived/tested)” value in data set [1] is 5/18.
